Assay results as given in PubChem BioAssay AID1963847 (Molecular Pharmacology Branch, DTP, NCI, 2024).
pIC50: −log10 of the molar value.

System: 415267-285-R-J2-PDC complex spheroid viability
Test: Anticancer human tumor 415267-285-R-J2-PDC patient-derived breast carcinoma cell line growth inhibition [POLQ]
Details: for pIC50: curve of first compound; for viability, T/C: stronger effect = lower value
How it was run: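 Growth inhibition in 3D: complex spheroids (tumor PDC, HUVEC, MSC) treated with POLQ inhibitor combinations; where Cmax unknown, highest tested concentration 10 microM, except SN-38 at 1 microM.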

[1] = second compound 0.0316 µM, first compound 0.0316 µM
[2] = second compound 0.0316 µM, first compound 0.1 µM
[3] = second compound 0.0316 µM, first compound 0.316 µM
[4] = second compound 0.0316 µM, first compound 1 µM
[5] = second compound 0.0316 µM, first compound 3.16 µM
[6] = second compound 0.0316 µM, first compound 10 µM
[7] = second compound 0.1 µM, first compound 0.0316 µM
[8] = second compound 0.1 µM, first compound 0.1 µM
[9] = second compound 0.1 µM, first compound 0.316 µM
[10] = second compound 0.1 µM, first compound 1 µM
[11] = second compound 0.1 µM, first compound 3.16 µM
[12] = second compound 0.1 µM, first compound 10 µM
[13] = second compound 0.316 µM, first compound 0.0316 µM
[14] = second compound 0.316 µM, first compound 0.1 µM
[15] = second compound 0.316 µM, first compound 0.316 µM
[16] = second compound 0.316 µM, first compound 1 µM
[17] = second compound 0.316 µM, first compound 3.16 µM
[18] = second compound 0.316 µM, first compound 10 µM
[19] = second compound 1 µM, first compound 0.0316 µM
[20] = second compound 1 µM, first compound 0.1 µM
[21] = second compound 1 µM, first compound 0.316 µM
[22] = second compound 1 µM, first compound 1 µM
[23] = second compound 1 µM, first compound 3.16 µM
[24] = second compound 1 µM, first compound 10 µM
[25] = second compound 3.16 µM, first compound 0.0316 µM
[26] = second compound 3.16 µM, first compound 0.1 µM
[27] = second compound 3.16 µM, first compound 0.316 µM
[28] = second compound 3.16 µM, first compound 1 µM
[29] = second compound 3.16 µM, first compound 3.16 µM
[30] = second compound 3.16 µM, first compound 10 µM
[31] = second compound 10 µM, first compound 0.0316 µM
[32] = second compound 10 µM, first compound 0.1 µM
[33] = second compound 10 µM, first compound 0.316 µM
[34] = second compound 10 µM, first compound 1 µM
[35] = second compound 10 µM, first compound 3.16 µM
[36] = second compound 10 µM, first compound 10 µM
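Note: spheroids exposed to compounds for one week before readout.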
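Throughout, for viability, T/C: luminescence used as stand-in measure of viable cells; 100% = DMSO vehicle control viability.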

Q: How did the pIC50 (second compound 0.0316 µM) turn out when `COc1cc2cc(C(=O)CCC(=O)O)sc2cc1OC` + Cc1cccc(N(C)C(=O)C2C(O)CCN2c2nc(C)cc(C(F)(F)F)c2C#N)c1 was run?
A: < 5.00

Q: What about the pIC50 (second compound 0.1 µM) of the same molecule?
A: < 5.00

Q: What about the pIC50 (second compound 0.316 µM) of the same molecule?
A: < 5.00

Q: And the pIC50 (second compound 1 µM)?
A: < 5.00

Q: And the pIC50 (second compound 3.16 µM)?
A: < 5.00

Q: And the pIC50 (second compound 10 µM)?
A: < 5.00

Q: What about the viability, T/C [1] of the same molecule?
A: 101%

Q: And the viability, T/C [2]?
A: 103%

Q: What about the viability, T/C [3] of the same molecule?
A: 101%

Q: And the viability, T/C [4]?
A: 104%

Q: What about the viability, T/C [5] of the same molecule?
A: 116%

Q: And the viability, T/C [6]?
A: 99%

Q: What about the viability, T/C [7] of the same molecule?
A: 103%

Q: And the viability, T/C [8]?
A: 98.7%

Q: And the viability, T/C [9]?
A: 98.7%

Q: And the viability, T/C [10]?
A: 102%

Q: And the viability, T/C [11]?
A: 100%

Q: And the viability, T/C [12]?
A: 101%

Q: And the viability, T/C [13]?
A: 99.7%

Q: What about the viability, T/C [14] of the same molecule?
A: 107%

Q: What about the viability, T/C [15] of the same molecule?
A: 101%

Q: What about the viability, T/C [16] of the same molecule?
A: 104%

Q: And the viability, T/C [17]?
A: 91.5%

Q: What about the viability, T/C [18] of the same molecule?
A: 109%

Q: And the viability, T/C [19]?
A: 111%

Q: What about the viability, T/C [20] of the same molecule?
A: 101%

Q: And the viability, T/C [21]?
A: 95.3%

Q: What about the viability, T/C [22] of the same molecule?
A: 103%

Q: What about the viability, T/C [23] of the same molecule?
A: 100%

Q: What about the viability, T/C [24] of the same molecule?
A: 100%

Q: And the viability, T/C [25]?
A: 110%

Q: What about the viability, T/C [26] of the same molecule?
A: 112%

Q: What about the viability, T/C [27] of the same molecule?
A: 99.1%

Q: What about the viability, T/C [28] of the same molecule?
A: 102%

Q: What about the viability, T/C [29] of the same molecule?
A: 97.3%

Q: And the viability, T/C [30]?
A: 115%

Q: What about the viability, T/C [31] of the same molecule?
A: 98.8%

Q: And the viability, T/C [32]?
A: 112%

Q: And the viability, T/C [33]?
A: 109%

Q: And the viability, T/C [34]?
A: 105%

Q: And the viability, T/C [35]?
A: 103%

Q: What about the viability, T/C [36] of the same molecule?
A: 109%

Q: Which results are given for `O=C(c1cc(Cc2n[nH]c(=O)c3ccccc23)ccc1F)N1CCN(C(=O)C2CC2)CC1` + COC1C(OC(N)=O)C(O)C(Oc2ccc3c(O)c(NC(=O)c4ccc(O)c(CC=C(C)C)c4)c(=O)oc3c2C)OC1(C)C?
A: pIC50 (second compound 0.0316 µM): < 5.00; pIC50 (second compound 0.1 µM): < 5.00; pIC50 (second compound 0.316 µM): < 5.00; pIC50 (second compound 1 µM): < 5.00; pIC50 (second compound 3.16 µM): < 5.00; pIC50 (second compound 10 µM): < 5.00; viability, T/C [1]: 88%; viability, T/C [2]: 92.7%; viability, T/C [3]: 89.4%; viability, T/C [4]: 94.3%; viability, T/C [5]: 96.5%; viability, T/C [6]: 81.8%; viability, T/C [7]: 95.5%; viability, T/C [8]: 94%; viability, T/C [9]: 87%; viability, T/C [10]: 92%; viability, T/C [11]: 94.6%; viability, T/C [12]: 79.6%; viability, T/C [13]: 93.5%; viability, T/C [14]: 102%; viability, T/C [15]: 98.2%; viability, T/C [16]: 96.6%; viability, T/C [17]: 90.4%; viability, T/C [18]: 95.1%; viability, T/C [19]: 98.5%; viability, T/C [20]: 101%; viability, T/C [21]: 96.8%; viability, T/C [22]: 90.9%; viability, T/C [23]: 96%; viability, T/C [24]: 77.9%; viability, T/C [25]: 97.2%; viability, T/C [26]: 91.9%; viability, T/C [27]: 90.8%; viability, T/C [28]: 94.8%; viability, T/C [29]: 98.3%; viability, T/C [30]: 81.4%; viability, T/C [31]: 97.6%; viability, T/C [32]: 105%; viability, T/C [33]: 92%; viability, T/C [34]: 93.2%; viability, T/C [35]: 89.2%; viability, T/C [36]: 79.7%

Q: `CC1COCCN1c1cc(C2(O)CC3CCC(C2)O3)c2cnn(-c3ccn[nH]3)c2n1` (stereo not drawn) + COC1C(OC(N)=O)C(O)C(Oc2ccc3c(O)c(NC(=O)c4ccc(O)c(CC=C(C)C)c4)c(=O)oc3c2C)OC1(C)C was tested. Which pIC50 (second compound 0.0316 µM) did it give?
A: > 7.50

Q: And the pIC50 (second compound 0.1 µM)?
A: > 7.50

Q: What about the pIC50 (second compound 0.316 µM) of the same molecule?
A: > 7.50

Q: And the pIC50 (second compound 1 µM)?
A: > 7.50

Q: And the pIC50 (second compound 3.16 µM)?
A: > 7.50

Q: What about the pIC50 (second compound 10 µM) of the same molecule?
A: > 7.50

Q: And the viability, T/C [1]?
A: 17.2%

Q: What about the viability, T/C [2] of the same molecule?
A: 6.83%

Q: And the viability, T/C [3]?
A: 8.23%

Q: What about the viability, T/C [4] of the same molecule?
A: 5.44%

Q: And the viability, T/C [5]?
A: 4.27%

Q: And the viability, T/C [6]?
A: 4.51%

Q: What about the viability, T/C [7] of the same molecule?
A: 17.1%

Q: And the viability, T/C [8]?
A: 6.51%

Q: What about the viability, T/C [9] of the same molecule?
A: 4.34%

Q: And the viability, T/C [10]?
A: 4.52%

Q: And the viability, T/C [11]?
A: 3.9%

Q: And the viability, T/C [12]?
A: 4.57%

Q: What about the viability, T/C [13] of the same molecule?
A: 22.7%

Q: What about the viability, T/C [14] of the same molecule?
A: 9.96%

Q: What about the viability, T/C [15] of the same molecule?
A: 4.64%

Q: What about the viability, T/C [16] of the same molecule?
A: 3.57%

Q: And the viability, T/C [17]?
A: 5.27%

Q: And the viability, T/C [18]?
A: 4%

Q: And the viability, T/C [19]?
A: 27.2%

Q: And the viability, T/C [20]?
A: 6.76%

Q: What about the viability, T/C [21] of the same molecule?
A: 4.22%

Q: And the viability, T/C [22]?
A: 4.87%

Q: And the viability, T/C [23]?
A: 4.41%

Q: And the viability, T/C [24]?
A: 3.65%

Q: And the viability, T/C [25]?
A: 21%

Q: And the viability, T/C [26]?
A: 8.52%

Q: And the viability, T/C [27]?
A: 4.99%

Q: And the viability, T/C [28]?
A: 4.02%

Q: What about the viability, T/C [29] of the same molecule?
A: 4.45%

Q: And the viability, T/C [30]?
A: 4.43%

Q: What about the viability, T/C [31] of the same molecule?
A: 29.5%

Q: And the viability, T/C [32]?
A: 7.77%

Q: And the viability, T/C [33]?
A: 5.61%

Q: And the viability, T/C [34]?
A: 5.07%

Q: What about the viability, T/C [35] of the same molecule?
A: 4.2%

Q: What about the viability, T/C [36] of the same molecule?
A: 4.18%

Q: Which results are given for `COc1cccc2c1C(=O)c1c(O)c3c(c(O)c1C2=O)CC(O)(C(=O)CO)CC3OC1CC(N)C(O)C(C)O1` (stereo not drawn) + Nc1ccc(C#CCN(C(=O)Cc2ncc(C(F)(F)F)cc2C(F)(F)F)c2ccc(F)cc2)nn1?
A: pIC50 (second compound 0.0316 µM): 7.25; pIC50 (second compound 0.1 µM): 7.26; pIC50 (second compound 0.316 µM): 7.24; pIC50 (second compound 1 µM): 7.30; pIC50 (second compound 3.16 µM): 7.31; pIC50 (second compound 10 µM): > 7.50; viability, T/C [1]: 81.1%; viability, T/C [2]: 18%; viability, T/C [3]: 4.33%; viability, T/C [4]: 0.75%; viability, T/C [5]: 1.29%; viability, T/C [6]: 3.55%; viability, T/C [7]: 80.9%; viability, T/C [8]: 15.8%; viability, T/C [9]: 3.25%; viability, T/C [10]: 0.65%; viability, T/C [11]: 0.93%; viability, T/C [12]: 3.6%; viability, T/C [13]: 80.6%; viability, T/C [14]: 22.5%; viability, T/C [15]: 3.28%; viability, T/C [16]: 0.8%; viability, T/C [17]: 1.04%; viability, T/C [18]: 3.39%; viability, T/C [19]: 76.9%; viability, T/C [20]: 9.51%; viability, T/C [21]: 3.66%; viability, T/C [22]: 0.83%; viability, T/C [23]: 1.07%; viability, T/C [24]: 4.04%; viability, T/C [25]: 73.7%; viability, T/C [26]: 13%; viability, T/C [27]: 4.28%; viability, T/C [28]: 1.36%; viability, T/C [29]: 1.16%; viability, T/C [30]: 3.92%; viability, T/C [31]: 49.4%; viability, T/C [32]: 9.57%; viability, T/C [33]: 4.23%; viability, T/C [34]: 1.37%; viability, T/C [35]: 1.54%; viability, T/C [36]: 4.35%
